Reference: patent US20260207777A1, “IMPROVED PEPTIDE INHIBITORS OF P53 BINDING PROTEIN 53BP1” (KAMAU THERAPEUTICS, INC., priority 2022, published 2026)

Experiments:
CD34+ HSPCs [1] = assay: editing of CD34+ HSPCs with purified i53 variant proteins and HBB-SNP AAV donor; NGS of editing outcomes; format: cell-based, human; details: for increase of % HDR over control edited without protein: FIG. 13, average across all concentrations (0.1, 0.2, 0.4 mg/mL) and of L67R and L67H; for increase in levels of HDR corrected alleles over DM / impact on % NHEJ: protein 0.4 mg/mL; for increase in levels of HDR corrected alleles over DM: L67R/L67H value is the average of both; for levels of % HDR corrected alleles: HBB-SNP AAV MOI 312.5 with protein 0.4 mg/mL, compared with 2500 MOI alone (8x the amount of AAV); for impact on % NHEJ: HBB-SNP AAV MOIs 312.5 and 2500
Experimental: (§1) Chemically-modified single guide RNAs (sgRNAs) used to edit CD34+ HSPCs at the HBB locus were purchased from Synthego. The sgRNA sequences were modified by adding 2′-O-methyl-3′-phosphorothioate at the three terminal nucleotides of the 5′ and 3′ ends. The target sequence for the HBB sgRNA is as follows: HBB: 5′[…]-3′ (SEQ ID NO: 74). Cas9 protein (SpyFi Cas9) was purchased from Aldevron. The RNPs were complexed at a Cas9:sgRNA molar ratio of 1:2.5 at 25° C. for 10-15 min prior to electroporation. Cells were collected, counted, and pelleted at 180 g×7 min. The cell pellets were resuspended in Maxcyte buffer with complexed RNPs and electroporated using a Maxcyte EXPERT ATx Nucleofector. After electroporation cells were plated at 3.5×10^5 cells/mL in media supplemented with cytokines and the desired AAV donor added at 5.0×10^2-2.5×10^4 vector genomes/cell. 24 h after nucleofection, cells were spun down, washed once with media, and seeded into AAV-free media at a density of 3.5×10^5 cells/mL.
(§2) CD34+ HPSCs were edited with protein variants 3 days post thaw and were harvested 2 days post nucleofection for NGS analysis or 3-5 days post nucleofection for GFP expression analysis. Editing reactions with proteins at a given concentration were repeated in duplicate or triplicate (either using the same CD34+ HSPC donor or across multiple donors).
24 h after nucleofection, cells were spun down, washed with media, and seeded into AAV and DNAPKi-free media at a density of 3.5×10^5 cells/mL.
The frequency of homology directed repair (HDR) and other editing outcomes at HBB were measured using Next Generation Sequencing (NGS). An NGS assay was developed to determine the frequency of at the HBB locus by quantifying the total number of alleles that have been either: (1) not edited (% WT), (2) changed by HDR to incorporate sequence differences present in the AAV repair template (% HR), or (3) mutated during the genome correction process resulting in a gene that produces mutant β-globin (% INDELs).
For this assay, genomic DNA was harvested from cells using a Quick-DNA 96 Plus Kit (Zymo Research). The DNA concentration was measured using a Qubit 1×dsDNA BR assay kit (ThermoFisher). Purified genomic DNA was then used to amplify the HBB locus via polymerase chain reaction (PCR). The PCR products were diluted using nuclease-free water to serve as the template DNA for targeted NGS library prep. A second PCR with primers carrying partial Illumina adapters was performed to amplify a 142 base pair sequence that includes the region of the HBB locus that is to be corrected during the genome correction process. The PCR products were diluted again to serve as templates in a third PCR reaction using Nextera XT index primers. This third PCR reaction was used to assign unique identifiers to each sample and to add the full length adapter sequences necessary for Illumina sequencing. The size of the PCR products was assessed on an Agilent BioAnalyzer. PCR products were then pooled, purified using a Qiagen PCR purification kit, and quantified using PicoGreen in order to ready the PCR products for sequencing.
Based on the PicoGreen concentration, the library of pooled PCR products was diluted to a final concentration of 4 nM. Sequencing was performed on a MiSeq system using an Illumina MiSeq sequencing reagent kit (V2, 300 cycles). A 10% PhiX control library was added to the sample library to improve sequence diversity and to allow for error rate measurements. The library was denatured and loaded at […] onto the sequencing reagent cartridge. The sequencing entails paired-end 150 base pair reads and dual indexing reads. The sequencing data was demultiplexed based on the sample indexes provided and FASTQ files for each sample are generated.
The FASTQ files were processed using the CRISPResso2 pipeline^3. The data was reported as % WT, % corrected by HR, and % INDELs. […]

CD34+ HSPCs [2] = assay: validation of individual i53 variants via lentiviral expression; GFP integration by flow cytometry (HBB-UBC-GFP AAV); format: cell-based, human; details: HBB-UBC-GFP AAV MOI=1250
Excerpt: Sequences of individual i53 variants of interest were cloned into the lentiviral-based expression plasmid described above. Hits were validated either as pooled “validation libraries” (variant and control plasmids manually mixed to generate a pool of 5-25 variants) or individually. Lentivirus generated from these plasmids was used to transduce CD34+ HSPC cells at MOIs of 0.5-1 at day 1 post thaw. […] Cells transduced with pooled validation libraries were edited in triplicate or quadruplet; cells transduced with individual variants were edited in duplicate.
For individual testing of variants, rates of integration of the HBB-UBC-GFP donor were measured using a Beckman Coulter CytoFLEX. DAPI (Miltenyi Biotec) was used to discriminate live and dead cells. mCherry expression was used to differentiate transduced cells from untransduced cells and rates of GFP integration were compared between the two populations to quantify the impact of lentiviral-based variant expression on HDR rates. Flow cytometry data were analyzed using FlowJo 10 software.

CD34+ HSPCs [3] = assay: editing of CD34+ HSPCs with purified i53 variant proteins and HBB-UBC-GFP AAV donor; flow cytometry; format: cell-based, human; details: for increase of % HDR over DM: HBB-UBC-GFP AAV MOI 1250, protein 0.4 mg/mL, GFP integration in live cells, L67R/L67H value is the average of both; for increase in levels of GFP integration over control edited without protein: HBB-UBC-GFP AAV MOI 2500, average across all concentrations tested (0.1-0.8 mg/mL) and of L67R and L67H
Experimental: as §1, §2
Rates of targeted integration of the HBB UBC GFP donor were measured using a Beckman Coulter CytoFLEX. DAPI (Miltenyi Biotec) was used to discriminate live and dead cells. Flow cytometry data were analyzed using FlowJo 10 software.

53BP1 Tudor domain = 53BP1 Tudor domain (Homo sapiens, UniProt Q12888); assay: Bio-Layer Interferometry (BLI) with immobilized 53BP1 Tudor domain; details: biotin-labeled immobilized 53BP1 Tudor domain; 1:1 binding model
Experimental: Data were collected using an Octet R8 system (Sartorius). Purified 53BP1 Tudor domain was labeled at exposed primary amine groups with NHS-biotin using ChromaLINK NHS-Biotin protein labeling kit (Vector Laboratories). 1 equivalent of chromalink biotin was incubated with the 53BP1 Tudor domain for 2 hours and buffer exchanged into fresh PBS. Labeling efficiency was calculated to be approximately 1 biotin per molecule of 53BP1 Tudor domain. Octet SA Biosensor tips (Sartorius) were incubated with biotin-labeled 53BP1 Tudor domain (ligand) for 60-80 seconds. The labeled tip was then dipped in 1× binding buffer (Sartorius) for 60 seconds to remove excess ligand and achieve baseline. […] A range of analyte concentrations were tested from a highest to lowest concentration in nM (i.e. 200, 100, 50, 25, 12.5, 6.25, 3.125). The tips were then introduced to 1× binding buffer for 5 minutes and the response was continuously monitored to detect dissociation. A dissociation constant (KD) was calculated using a 1:1 binding model and the on-rate (ka) and off-rate […] were calculated as a change in response (nm) over time (sec).

CD34+ HSPCs [4] = assay: DNA damage response (DDR) markers yH2AX and p21 in edited HSPCs; details: protein 0.8 mg/mL; any given MOI (78.125-2500); 24 h post nucleofection
Experimental: In order to quantify the induction of the DNA damage response (DDR) pathways, a subset of edited cells was harvested 24 h post nucleofection to quantify DDR markers p21 and yH2AX^5.

Chain of 53BP1 Tudor domain (Q12888 1484-1603): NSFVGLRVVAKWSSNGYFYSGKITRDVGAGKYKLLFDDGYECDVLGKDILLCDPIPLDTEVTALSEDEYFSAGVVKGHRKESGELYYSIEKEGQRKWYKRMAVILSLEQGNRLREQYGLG

| Substance | increase of % HDR over control edited without protein (CD34+ HSPCs [1]; HBB-SNP AAV MOI 312.5) | increase of % HDR over control edited without protein (CD34+ HSPCs [1]; HBB-SNP AAV MOI 2500) | increase in levels of HDR corrected alleles over DM (CD34+ HSPCs [1]; HBB-SNP AAV MOI 312.5) | levels of % HDR corrected alleles (CD34+ HSPCs [1]) | increase in levels of HDR corrected alleles over DM (CD34+ HSPCs [1]; HBB-SNP AAV MOI 2500) | impact on % NHEJ (CD34+ HSPCs [1]) | rates of GFP integration in mCherry+ live cells in relation to mCherry- control cells, compared with i53 and DM (CD34+ HSPCs [2]) | increase of % HDR over DM (CD34+ HSPCs [3]) | increase in levels of GFP integration over control edited without protein (CD34+ HSPCs [3]) | rate of binding compared to parent i53 (53BP1 Tudor domain) | p21 response (CD34+ HSPCs [4]) | yH2AX response (CD34+ HSPCs [4]) |
| --- | --- | --- | --- | --- | --- | --- | --- | --- | --- | --- | --- | --- |
| L67H: i53 variant with His at position 67 | 62% | 27% | 56% | approaching those using 2500 MOI alone | 44% | more significant impact on % NHEJ relative to i53 | higher rates of GFP integration | 69% | 70% | measurably increased rate of binding compared to parent i53 | – | – |
| L67R: i53 variant with Arg at position 67 | 62% | 27% | 56% | approaching those using 2500 MOI alone | 44% | more significant impact on % NHEJ relative to i53 | higher rates of GFP integration | 69% | 70% | measurably increased rate of binding compared to parent i53 | not found to significantly increase | not found to significantly increase |
